Test results reported in US10934298B2, “Substituted pyrazolo[1,5-a]pyrimidines for the treatment of medical disorders” (BIAL—BioTech Investments, Inc., priority 2016, dated 2021).

Target: T1, glucocerebrosidase (Gcase) (Homo sapiens, UniProt P04062)
T1 construct: micellar solution containing 10 nM GCase and 100 nM saposin C
T1 sequence (P04062 40-536): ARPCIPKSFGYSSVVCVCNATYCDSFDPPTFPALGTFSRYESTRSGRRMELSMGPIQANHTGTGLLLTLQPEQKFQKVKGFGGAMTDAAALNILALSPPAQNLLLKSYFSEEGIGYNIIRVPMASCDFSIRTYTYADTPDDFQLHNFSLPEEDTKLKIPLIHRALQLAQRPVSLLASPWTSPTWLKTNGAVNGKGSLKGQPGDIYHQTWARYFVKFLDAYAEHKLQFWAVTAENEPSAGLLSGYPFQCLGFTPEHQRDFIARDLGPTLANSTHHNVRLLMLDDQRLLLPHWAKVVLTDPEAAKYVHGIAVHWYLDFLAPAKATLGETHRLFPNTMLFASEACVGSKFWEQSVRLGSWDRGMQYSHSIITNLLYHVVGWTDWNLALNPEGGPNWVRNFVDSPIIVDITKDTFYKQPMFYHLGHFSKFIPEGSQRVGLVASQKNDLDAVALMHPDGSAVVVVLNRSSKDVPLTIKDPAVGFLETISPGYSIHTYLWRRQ
Test: Glucocerebrosidase (Gcase) activation assay with 4-methylumbelliferyl-beta-D-glucopyranoside substrate, saposin C and phosphatidylserine/triton micelles, fluorescence readout
Assay type: biochemical
Description: The ability of exemplary compounds to activate glucocerebrosidase (Gcase) was measured.
A 484 μL aliquot of a 1.0 mg/mL solution of phosphatidylserine (PS) (Sigma P7769) in chloroform was evaporated under a stream of nitrogen for 1 hour. The lipid film was dissolved over 4 minutes of vigorous vortexing in 40 mL of 176 mM K2HPO4/50 mM citric acid (pH 4.7) containing 7.5 μL of triton X-100, resulting in a mixed micellar preparation with a composition of 0.32 mM triton and 0.37 mol % PS. 4-Methylumbelliferyl-beta-D-glucopyranoside (ACROS-337025000) was dissolved in the micellar solution to a final concentration of 2 mM for use as the reaction substrate.
Test compounds were diluted to the desired concentrations with dimethylsulfoxide (DMSO) from 10 mM stocks, and 0.41 μL of the DMSO compound mixture was added to 100 μL of micellar solution containing 10 nM GCase and 100 nM saposin C (Enzo ALX-201-262-C050). Pre-incubation was allowed to occur for 30 minutes at room temperature, after which the reaction was initiated by combining 25 μL of substrate solution with 25 μL of compound/GCase/saposin mixture. The reaction proceeded for 15 minutes at room temperature and was stopped by adding 150 μL of 1M glycine, pH 12.5. The endpoint of the reaction was monitored by measuring fluorescence intensity (excitation: 365 nm; emission: 440 nm) on a SpectraMax i3 instrument (Molecular Devices). Test compounds were screened at 1.0 and 0.1 μM final concentration, and subsequent 8-point dose response curves were obtained using 3-fold dilutions from a maximum final concentration of 5 μM.

SMILES	Percent Gcase Activation, 0.1 μM Test Compound (0.1 μM test compound)	Percent Gcase Activation, 1 μM Test Compound (1 μM test compound)	Percent Gcase Activation, 0.1 μM Test Compound (test compound at 0.1 μM)	Percent Gcase Activation, 1 μM Test Compound (test compound at 1.0 μM)	other results
Cc1cc(-c2cc(F)c3c(c2)OCO3)nc2c(C(=O)NC(C)C(F)(F)F)cnn12 (stereo not drawn) [III-294]	*** (greater than 20% Gcase activation)	+++ (Gcase activation greater than 60%)	–	–	–
Cc1cc(N2CCCCC2)nc2c(C(=O)NC(C)C3CC3)cnn12 (stereo not drawn) [III-31]	–	–	–	–	Percent Gcase Activation, 0.1 μM Test Compound (0.1 μM test compound, Table 3A): *** (greater than 20% Gcase activation); Percent Gcase Activation, 1 μM Test Compound (1 μM test compound, Table 3A): +++ (Gcase activation greater than 60%)
Cc1cc(-c2cc(Cl)ccn2)nc2c(C(=O)NC(C3CC3)C(F)(F)F)cnn12 (stereo not drawn) [III-207]	–	–	*** (greater than 20% Gcase activation)	+++ (Gcase activation greater than 60%)	–
Cc1cc(-c2nc3ccccc3[nH]2)nc2c(C(=O)NC(C3CC3)C(F)(F)F)cnn12 (stereo not drawn) [III-311]	* (less than 10% Gcase activation)	++ (Gcase activation in the range of 30% up to 60%)	–	–	–
COc1c(C#N)cccc1-c1cc(C)n2ncc(C(=O)NC(C3CC3)C(F)(F)F)c2n1 (stereo not drawn) [III-141]	–	–	* (less than 10% Gcase activation)	+++ (Gcase activation greater than 60%)	–
Cc1cc(-c2cncc(Cl)c2)nc2c(C(=O)N[C@@H](C)C(F)(F)F)cnn12 [III-202]	–	–	*** (greater than 20% Gcase activation)	+++ (Gcase activation greater than 60%)	–
Cc1cc(-c2ccc(F)o2)nc2c(C(=O)N[C@H](C)C(F)(F)F)cnn12 [III-334]	*** (greater than 20% Gcase activation)	+++ (Gcase activation greater than 60%)	–	–	–
Cc1cc(-c2ccc(F)c(C(N)=O)c2)nc2c(C(=O)NC(C3CC3)C(F)(F)F)cnn12 (stereo not drawn) [III-162]	–	–	*** (greater than 20% Gcase activation)	+++ (Gcase activation greater than 60%)	–
Cc1cc(N2CCN(CC(F)(F)F)C2=O)nc2c(C(=O)NC(C3CC3)C(F)(F)F)cnn12 (stereo not drawn) [III-233]	–	–	** (Gcase activation in the range of 10% up to 20%)	+++ (Gcase activation greater than 60%)	–
COc1cccc(-c2cc(C)n3ncc(C(=O)N[C@@H](C)C4CC4)c3n2)c1 [III-57]	–	–	–	–	Percent Gcase Activation, 0.1 μM Test Compound (0.1 μM test compound, Table 3A): *** (greater than 20% Gcase activation); Percent Gcase Activation, 1 μM Test Compound (1 μM test compound, Table 3A): +++ (Gcase activation greater than 60%)
CCc1cc(-c2ccccn2)n2ncc(C(=O)NC(C)C3CC3)c2n1 (stereo not drawn) [III-48]	–	–	–	–	Percent Gcase Activation, 0.1 μM Test Compound (0.1 μM test compound, Table 3A): * (less than 10% Gcase activation); Percent Gcase Activation, 1 μM Test Compound (1 μM test compound, Table 3A): ++ (Gcase activation in the range of 30% up to 60%)
Cc1nc(-c2cc(C)n3ncc(C(=O)NC(C)(C)C4CC4)c3n2)co1 [III-251]	–	–	** (Gcase activation in the range of 10% up to 20%)	+++ (Gcase activation greater than 60%)	–
Cc1cc(-c2ccccc2C#N)nc2c(C(=O)N[C@H](C)C(F)(F)F)cnn12 [III-212]	–	–	* (less than 10% Gcase activation)	++ (Gcase activation in the range of 30% up to 60%)	–
COCc1cc(-c2ccc(F)cc2)nc2c(C(=O)N[C@@H](C)C3CC3)cnn12 [III-46]	–	–	–	–	Percent Gcase Activation, 0.1 μM Test Compound (0.1 μM test compound, Table 3A): * (less than 10% Gcase activation); Percent Gcase Activation, 1 μM Test Compound (1 μM test compound, Table 3A): ++ (Gcase activation in the range of 30% up to 60%)
Cc1cc(-c2ccc3c(c2)ncn3C)nc2c(C(=O)NC(C3CC3)C(F)(F)F)cnn12 (stereo not drawn) [III-303]	** (Gcase activation in the range of 10% up to 20%)	+ (less than 30% Gcase activation)	–	–	–
Cc1cc(-c2cncc(C(F)(F)F)c2)nc2c(C(=O)NC(C)C(F)(F)F)cnn12 (stereo not drawn) [III-285]	*** (greater than 20% Gcase activation)	+++ (Gcase activation greater than 60%)	–	–	–
Cc1nc(-c2cc(C)n3ncc(C(=O)N[C@H](C4CC4)C(F)(F)F)c3n2)oc1C [III-331]	*** (greater than 20% Gcase activation)	+++ (Gcase activation greater than 60%)	–	–	–
Cc1cc(-c2ccc3scnc3c2)nc2c(C(=O)NC(C)C(F)(F)F)cnn12 (stereo not drawn) [III-220]	–	–	*** (greater than 20% Gcase activation)	+++ (Gcase activation greater than 60%)	–
Cc1cc(-c2cncc(C#N)c2)nc2c(C(=O)N[C@H](C3CC3)C(F)(F)F)cnn12 [III-363]	*** (greater than 20% Gcase activation)	+++ (Gcase activation greater than 60%)	–	–	–
Cc1cc(-c2nccs2)nc2c(C(=O)NC(C3CC3)C(F)(F)F)cnn12 (stereo not drawn) [III-209]	–	–	*** (greater than 20% Gcase activation)	+++ (Gcase activation greater than 60%)	–
Cc1cc(-c2cccc(C#N)c2)nc2c(C(=O)N[C@@H](C)C3CC3)cnn12 [III-70]	–	–	–	–	Percent Gcase Activation, 0.1 μM Test Compound (0.1 μM test compound, Table 3A): *** (greater than 20% Gcase activation); Percent Gcase Activation, 1 μM Test Compound (1 μM test compound, Table 3A): +++ (Gcase activation greater than 60%)
Cc1ncc(-c2cc(C)n3ncc(C(=O)NC(C4CC4)C(F)(F)F)c3n2)o1 (stereo not drawn) [III-246]	–	–	** (Gcase activation in the range of 10% up to 20%)	+++ (Gcase activation greater than 60%)	–
Cc1cc(-c2ccc(C(F)(F)F)nc2)nc2c(C(=O)NC(C)C(F)(F)F)cnn12 (stereo not drawn) [III-288]	** (Gcase activation in the range of 10% up to 20%)	+++ (Gcase activation greater than 60%)	–	–	–
COc1c(C#N)cccc1-c1cc(C)n2ncc(C(=O)NC(C)C(F)(F)F)c2n1 (stereo not drawn) [III-142]	–	–	* (less than 10% Gcase activation)	+ (less than 30% Gcase activation)	–
Cc1cc(-c2ccccc2C#N)nc2c(C(=O)N[C@@H](C)C(F)(F)F)cnn12 [III-213]	–	–	*** (greater than 20% Gcase activation)	+++ (Gcase activation greater than 60%)	–
Cc1cc(-c2cccc(OC3CC3)c2)nc2c(C(=O)NC(C)C(F)(F)F)cnn12 (stereo not drawn) [III-77]	–	–	–	–	Percent Gcase Activation, 0.1 μM Test Compound (0.1 μM test compound, Table 3A): *** (greater than 20% Gcase activation); Percent Gcase Activation, 1 μM Test Compound (1 μM test compound, Table 3A): +++ (Gcase activation greater than 60%)
Cc1cc(-c2cccc3c2ncn3C)nc2c(C(=O)NC(C3CC3)C(F)(F)F)cnn12 (stereo not drawn) [III-310]	** (Gcase activation in the range of 10% up to 20%)	+++ (Gcase activation greater than 60%)	–	–	–
Cc1cc(-c2cccc3ncoc23)nc2c(C(=O)NC(C)(C)C(F)(F)F)cnn12 [III-219]	–	–	** (Gcase activation in the range of 10% up to 20%)	++ (Gcase activation in the range of 30% up to 60%)	–
Cc1cc(-c2ccccc2C#N)nc2c(C(=O)NC(C3CC3)C(F)(F)F)cnn12 (stereo not drawn) [III-211]	–	–	*** (greater than 20% Gcase activation)	+++ (Gcase activation greater than 60%)	–
Cc1cc(-c2cnccc2F)nc2c(C(=O)NC(C)C(F)(F)F)cnn12 (stereo not drawn) [III-199]	–	–	* (less than 10% Gcase activation)	++ (Gcase activation in the range of 30% up to 60%)	–
